Laboratory results published in patent US20240368583A1, “DNA CONSTRUCTS, RECOMBINANT CELLS COMPRISING THEREOF, BACTERIAL PROBES, METHODS FOR THEIR PREPARATION, AND METHOD OF USING THEREOF” (YEDA RESEARCH AND DEVELOPMENT CO. LTD., priority 2019, published 2024).

Legend:
[1] = biological target: Alexa 647-modified streptavidin (Streptomyces avidinii, UniProt P22629); assay: Bacteria-streptavidin interaction; type: cell-based; settings: duplex with ODN-1 on His-tagged bacteria; Alexa-SA 500 nM, 1 h
Description: His-tagged bacterial cells were decorated with a duplex consisting of ODN-1 and Compound 205 duplex according to a similar procedure described above. For binding with streptavidin, cells were incubated with Alexa-647 streptavidin conjugate (500 nM) in PBS×1 for 1 h, and after washing twice with PBS were imaged by fluorescent microscopy. The fluorescent signal was abolished when bacterial cells were treated with ODN-3 (3 μM) for 1 h. The control experiment was performed similarly using bacteria decorated with a duplex containing ODN-1 and the complementary strand.
Methods: His-tagged E. coli were incubated with an ODN-1 molecule and afterwards with a biotin-ODN-2 molecule (Compound 205). Then, the cells were incubated with an Alexa 647-modified streptavidin (FIG. 5A). To verify specificity, the same experiment was performed with an ODN-2 molecule lacking biotin (FIG. 5A). Cells were then incubated with ODN-3 to detach ODN-2 from the cell membranes.

MDA-MB-435 cells = assay: Fluorescence imaging of bacteria-cell interaction, MDA-MB-435 cells; type: cell-based, human; settings: bacteria linked to duplex with Compound 105; 20 min, washed
Description: (§1) Cells (15,000 cells/well) were seeded onto glass bottom culture dishes (MatTek) and allowed to adhere overnight. MDA-MB-435 cells were seeded in MEM medium supplemented with 5% charcoal dextran-stripped calf serum, 1% non-essential amino acids, 1% L-glutamine, and 1% penicillin/streptomycin. KB cells were plated in folate-depleted RPMI supplemented with 10% FBS and 1% penicillin/streptomycin while LNCaP were maintained in RPMI, 10% FBS, 1% L-glutamine, and 1% penicillin/streptomycin. Following day, medium was removed, rinsed thrice with PBS and then the cells were incubated with B-probes 1-4 (prepared by incubating His-bacteria with duplexes 1-4 at 500 nM concentration for 1 h at 25° C. followed by washing with PBS buffer) at 37° C., 5% CO2 in incubator for 20 min. Finally, the excess/unbound bacteria were gently washed off with PBS containing Ca^+2 and Mg^+2 (200 μL×3) and the cells were imaged using a fluorescence microscope with 60× objective lens. […]
(§2) MDA-MB-435 cells, LNCaP and KB cells were maintained in their respective media as mentioned in the previous section. […] After 20 minutes, the unbound bacteria were gently washed off with PBS containing Ca^+2 and Mg^+2 (200 μL×3) and the cells were imaged using a fluorescence microscope and a 60× objective lens.

[2] = test system: Native bacteria (that lack His-tag); assay: Decorating bacteria with the oligonucleotides, fluorescence imaging (native bacteria control); type: cell-based, E. coli; settings: native bacteria lacking His-OmpC; 500 nM with Ni (II)
Description: (§3) E. coli K-12 strain KRX (Promega) was used for protein expression. Transformed bacteria with the different OmpC constructs (OmpC or His-OmpC) were cultured to saturation in LB medium supplemented with 100 μg/ml of ampicillin at 30° C. 40 μl of the pre-cultured cells were then diluted into 4 ml of fresh LB medium supplemented with ampicillin, and incubated until the OD600 reaches ˜0.6. Protein expression was then induced by the addition of 0.1% Rhamnose and 20 μM isopropyl-b-D-1-thiogalactopyranoside (IPTG) and cultures were allowed to grow at 30° C. for 18 h. Then, the bacterial cells were harvested by centrifugation at 6,000 g for 4 min.
(§4) The bacterial cells (OmpC or His-OmpC) were collected by centrifugation at 6000 g for 4 min. The pellet was washed twice with PBS×1 buffer and resuspended in the same buffer to an OD600 of 0.3. To a 100 μl sample of the bacteria suspension, a preincubated sample of DNA (500 nM) and NiCl2 (2.5 μM) was added, and the cells were incubated at room temperature for 1 h. Then the bacterial sample were washed twice with PBS, resuspended in 100 μl PBS and placed on a glass-bottom dish (P35G-1.5-14-C; MatTek) precoated with poly-1-lysine (Sigma Aldrich) and left to adhere for 1 h. Finally, the wells were washed vigorously with PBS three times and imaged using an Olympus IX51 fluorescent microscope. The samples were imaged using 60× or 100× objective lenses.

[3] = test system: E. coli expressing His-OmpC; assay: Decorating bacteria with the oligonucleotides, fluorescence imaging; type: cell-based
Description: as §3
as §4, with “To a 100 μl sample of the bacteria suspension, a preincubated sample of DNA (500 nM) and NiCl2 (2.5 μM) was added, and the cells were incubated at room temperature for 1 h.” left out

[4] = test system: E. coli expressing His-OmpC; assay: Treatment of the modified bacteria with EDTA; type: cell-based; settings: 10 mM EDTA, 1 h
Description: Bacterial samples decorated with Compound 100 were incubated with various concentrations of EDTA (0, 5, 10 mM) for 1 h. Cells were then collected (6,000 g, 4 min) and washed twice with […] PBS buffer. Cells were resuspended in 100 μl PBS buffer and added to poly-1-lysine-coated slides for imaging.

LNCaP cells = assay: Fluorescence imaging of bacteria-cell interaction, LNCaP cells; type: cell-based, human; settings: bacteria linked to duplex with Compound 105; 20 min, washed
Description: as §1, §2

[5] = Adhesion of modified bacteria to the solid support; settings: duplex with ODN-1 on His-tagged bacteria; 15 min; control unmodified bacteria
Description: A solution of (11-mercaptoundecyl)tetra(ethylene glycol)^9 (2 mM in ethanol) were added to the gold coated substrates and incubated for 2 h. After removing the solution, the slides were washed four times with ethanol. Bacteria samples decorated with a duplex consisting of Compound 102 and Compound 207 were washed twice with PBS, resuspended in 100 μl phosphate buffer (pH=3.8), and then incubated on gold surfaces for 15 min. The solution containing bacteria was removed, and the slides were rinsed three times with PBS, and twice with water. Finally, they were imaged using an Olympus IX51 microscope.
Methods: His-tagged bacteria were decorated with a duplex assembled from ODN-1 and HS-ODN-2 (Compound 207), namely, an ODN-2 that is appended with a thiol group. HS is known to have high affinity to gold. In the following step, unmodified His-tagged bacteria and thiol-modified His-tagged bacteria (FIG. 6A) were incubated with a gold substrate that was previously passivated with (11-mercaptoundecyl)tetra(ethylene glycol) to prevent non-specific bacterial adhesion. Gold surfaces were observed after 15 min incubation. Cells were then incubated with ODN-3 to detach Compound 207 from bacteria membranes.

His-tagged bacteria = assay: Super-resolution (STORM) microscopy of decorated bacteria; type: cell-based, E. coli; settings: duplex with ODN-1; transverse cut
Description: Super-resolution images were collected on a Vutara SR200 STORM (Bruker) microscope based on the single-molecule localization biplane technology. His-tagged bacteria was decorated with ODN-1:Compound 201 duplex according to the procedure described in above. The bacteria were imaged using 647 nm excitation laser and 405 nm activation laser in an imaging buffer composed of 5 mM cysteamine, oxygen scavengers (7 μM glucose oxidase and 56 nM catalase) in 50 mM Tris, 10 mM NaCl and 10% glucose at pH 8.0. Images were recorded using a 60×NA 1.2 water immersion objective (Olympus) and Evolve 512 EMCCD camera (Photometrics) with gain set at 50, frame rate at 50 Hz, and maximal power of 647 and 405 nm lasers set at 6 and 0.05 kW/cm^2, respectively. Total number of frames acquired was 8000. Data was analyzed by the Vutara SRX software.
Methods: Due to the small size of bacteria, super resolution (SR) microscopy was used to visualize E. Coli 's membrane with super resolution (SR). This was achieved by combining ODN-1 with a commercially available ODN-2 (Cy5-ODN-2; Compound 201) bearing a Cy5 dye, which is compatible with stochastic optical reconstruction microscopy (STORM).

Alexa 647-modified streptavidin, sequence (P22629 25-183): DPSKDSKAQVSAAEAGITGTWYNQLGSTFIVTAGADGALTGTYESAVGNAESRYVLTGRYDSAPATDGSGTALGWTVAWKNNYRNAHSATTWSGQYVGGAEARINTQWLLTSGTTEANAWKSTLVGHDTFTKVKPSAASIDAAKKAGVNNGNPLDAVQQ

In the case of “Compound 205: biotin-ODN-2 molecule; SEQ ID NO. 6 (TAGGATCAGGCAGCTATGACGTGAC; DNA, backbone and methylation of C not given here; biotin attached)”, the “fluorescence of decorated bacteria after incubation with Alexa 647-modified streptavidin” value [1] is reported as “became fluorescent”.

With “Compound 220: alkyne modified Cy5-labeled ODN2 lacking the CSP binder; SEQ ID NO. 6 (DNA TAGGATCAGGCAGCTATGACGTGAC; DNA, backbone not given here; Cy5 label and alkyne modification, further chemistry not fully specified)” the “fluorescent labeling of MDA-MB-435 cells” value (MDA-MB-435 cells) was “no labeling was achieved”.

For “Compound 100: X-ODN-1 with tri-NTA His-tag binder, appended with a Cy5 dye; ODN sequence SEQ ID NO. 1 (GCGGCGAGGCAGC; DNA, backbone and methylation of C not given here; Cy5 dye and tri-NTA His-tag binder attached)”, the “fluorescent decoration of bacteria” value [2] was “No fluorescence”, the “fluorescent decoration of bacteria” value ([3]; 500 nM in the absence of nickel ions) was “No fluorescence” and the “fluorescent decoration of bacteria” value ([3]; 500 nM with Ni (II)) was “successfully decorated”. The “removal from the cell surface by EDTA” value [4] was “completely removed”.

With “Compound 230: alkyne modified FAM-labeled ODN2 lacking the CSP binder; SEQ ID NO. 6 (DNA TAGGATCAGGCAGCTATGACGTGAC; DNA, backbone not given here; FAM label and alkyne modification, further chemistry not fully specified)” the “fluorescent labeling of LNCaP cells” value (LNCaP cells) was “no labeling was achieved”.

With “Compound 207: ODN-2 that is appended with a thiol group; SEQ ID NO. 6 (TAGGATCAGGCAGCTATGACGTGAC; DNA, backbone and methylation of C not given here; thiol group appended)” the “attachment of thiol-modified bacteria to the gold substrate compared with the control” value [5] was “about 8.5 fold”.

In the case of “Compound 201: commercially available ODN-2 bearing a Cy5 dye; SEQ ID NO. 6 (TAGGATCAGGCAGCTATGACGTGAC; DNA, backbone and methylation of C not given here; Cy5 dye attached, commercially available)”, the “localisation of the label on bacteria (STORM)” value (His-tagged bacteria) is reported as “only the outer membrane of the bacteria is labeled”.
